Test in all cases: NCI anticancer screen, dose series, 48 h
Assay [1] concerns DU-145 prostate.
The test system of assay [2] is HS 578T breast.
Assay [3] deals with HT29 colon.
Assay [4] has as its system K-562 leukemia.
The test system of assay [5] is MCF7 breast.
Assay [6] has as its system MDA-MB-231 breast.
The subject of assay [7] is OVCAR-3 ovarian.
The subject of assay [8] is OVCAR-5 ovarian.
For assay [9], the system named is OVCAR-8 ovarian.
Assay [10] has as its system PC-3 prostate.
The test system of assay [11] is SF-268 CNS.
Assay [12] deals with SF-295 CNS.
Assay [13] has as its system SK-MEL-28 melanoma.
The test system of assay [14] is SK-MEL-5 melanoma.
In assay [15] the test system is SN12C renal.
Assay [16] deals with T-47D breast.
For assay [17], the system named is UACC-257 melanoma.
The subject of assay [18] is HCC-2998 colon.
The test system of assay [19] is HOP-92 NSCLC.
Assay [20] deals with SK-MEL-2 melanoma.

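Tested at 5 concentrations; 48 h exposure; 96-well plates; endpoints linearly interpolated, else capped at highest concentration. TGI: concentration producing complete growth inhibition.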

With `COc1ccc(C2Oc3c(cccc3OC)C=C2[N+](=O)[O-])cc1` (stereo not drawn), the TGI in assay [1] came to 16.4 µM; in [2] it was 8.82 µM; in assay [3] it was 4.59 µM; in assay [4] it was 16.3 µM; in assay [5], 10.8 µM; in assay [6] it was 13.6 µM. For the same compound, the TGI in assay [7] is 4.75 µM; in [8], 6.48 µM; in assay [9] it was 11.2 µM; in [10] it was 5.16 µM; in assay [11], 11.3 µM; in assay [12], 16.3 µM. In addition, the TGI amounted to 4.37 µM in [13]; 2.93 µM in [14]; 5.66 µM in [15]; 27.7 µM in assay [16]; 19 µM in assay [17].
On to `CC1CC(=O)NC2CC1C2(C)C` (stereo not drawn), for which the TGI in assay [1], in [18], in [19], in assay [2], in assay [3] and in [4] was > 100 µM in each case. Moreover, the TGI in assay [5], in assay [6], in assay [7], in assay [8], in assay [9] and in assay [11] was > 100 µM each time. In addition, the TGI in assay [12], in [20], in [13], in assay [14], in assay [15] and in assay [16] was > 100 µM each time. For the same compound, in assay [17], the TGI is > 100 µM.
Consider `[O-][n+]1onc2c1-c1nonc1CC2`, for which the TGI is > 100 µM in assay [1]; > 100 µM in assay [18]; 66.8 µM in [2]; > 100 µM in assay [3]; > 100 µM in [4]; > 100 µM in assay [5]. Also, the TGI in assay [6] is 69.2 µM; in assay [7], 43.8 µM; in assay [8], > 100 µM; in [9] it was > 100 µM; in [10] it was 77.8 µM; in assay [11], > 100 µM. Moreover, the TGI in assay [12] was > 100 µM; in [20] it was 65.2 µM; in assay [13], > 100 µM; in assay [14], 78.6 µM; in assay [15], > 100 µM; in assay [16], > 100 µM. In assay [17], this compound displayed a TGI of 59.4 µM.
Turning to `O=C(O)CCCC#CCCCC(=O)O`, the TGI in assay [1], in [18], in assay [19], in assay [2], in [3] and in assay [4] was > 100 µM in each case. For the same compound, the TGI in assay [5], in assay [7], in assay [8], in assay [9], in assay [10] and in assay [11] was > 100 µM throughout. The TGI in assay [12], in assay [20], in assay [13], in assay [14], in assay [15] and in [16] was > 100 µM throughout. In addition, the TGI in assay [17] is > 100 µM.
In the case of `Cc1ccc(C(=O)Nc2ccc(CP(=O)(O)O)cc2)cc1NC(=O)Nc1cc(C(=O)Nc2ccc(CP(=O)(O)O)cc2)ccc1C`, the TGI in assay [1], in assay [18], in assay [2], in [3], in assay [5] and in assay [6] was > 100 µM throughout. Further, the TGI in [7], in assay [8], in assay [9], in assay [10], in assay [11] and in assay [12] was > 100 µM in each case. Also, the TGI in [20], in assay [13], in assay [14], in assay [15], in assay [16] and in [17] was > 100 µM in each case.
Consider `CC1(C)OC([C@H](O)CO)C([C@H]2NCCS2)O1` (stereo partly drawn), for which the TGI in assay [1], in [18], in assay [19], in assay [2], in [3] and in assay [4] was > 100 µM in each case. Besides, the TGI in [6], in [7], in assay [8], in assay [9], in [10] and in assay [11] was > 100 µM throughout. The TGI in [12], in assay [20], in assay [13], in assay [14], in [16] and in [17] was > 100 µM throughout.
With `CC1(CC(=O)OC(C#C[Si](C)(C)C)Cc2ccccc2)OCCO1` (stereo not drawn), the TGI in [1], in assay [2], in assay [3], in [5], in [6] and in [8] was > 100 µM throughout. The TGI in [9], in assay [10], in [11], in assay [12], in assay [20] and in assay [13] was > 100 µM in each case. The TGI in assay [14], in [15], in assay [16] and in assay [17] was > 100 µM each time.
With `CC1=NN(c2ccccc2)C(=O)C1C(=O)C(=O)Nc1ccc(C)cc1C` (stereo not drawn), the TGI in assay [1], in [18], in [19], in assay [2], in assay [3] and in [4] was > 100 µM each time. For the same compound, the TGI in assay [5], in assay [7], in [8], in [9], in [10] and in assay [11] was > 100 µM each time. In addition, the TGI in assay [12], in assay [20], in assay [13], in [14], in assay [15] and in [16] was > 100 µM each time. In addition, the TGI in [17] was > 100 µM.
For `CC(C)C(/C=C/c1ccc(Cl)cc1)=N\NC(=S)NN`, the TGI in assay [1] was > 100 µM; in [18], > 100 µM; in [2], 72.3 µM; in assay [3] it was > 100 µM; in [4] it was > 100 µM; in [5], 52.5 µM. In addition, the TGI in assay [6] was > 100 µM; in [7] it was 78 µM; in assay [8], > 100 µM; in [9], > 100 µM; in assay [10], > 100 µM; in assay [11], > 100 µM. Moreover, the TGI in [12] is > 100 µM; in assay [20] it was 44.5 µM; in assay [13], > 100 µM; in [14], > 100 µM; in assay [15] it was > 100 µM; in assay [16], > 100 µM. For the same compound, the TGI in [17] came to 98.9 µM.
Turning to `COc1cc(C2SC(N)=Nc3c2c(C)nn3C(=O)Cc2ccccc2)ccc1O` (stereo not drawn), the TGI in assay [1], in assay [18], in [2], in [3], in assay [4] and in [5] was > 100 µM each time. Besides, the TGI in [6], in assay [9], in [10], in assay [11], in [12] and in [13] was > 100 µM in each case. Further, the TGI in assay [14], in assay [15], in [16] and in [17] was > 100 µM throughout.
Take `CC(=O)O[C@H]1C(=O)[C@@]2(C)[C@H]([C@H](OC(=O)c3ccncc3)[C@]3(O)C[C@H](OC(=O)[C@H](O)[C@@H](NC(=O)c4ccccc4)c4ccccc4)C(C)=C1C3(C)C)[C@]1(OC(C)=O)CO[C@@H]1C[C@@H]2O`: the TGI in [1] is > 25 µM; in assay [18], 11 µM; in assay [2], > 21 µM; in assay [3], > 25 µM; in [4], 5.36 µM; in assay [5], > 25 µM. The TGI in assay [6] was > 25 µM; in [7], > 18.5 µM; in assay [8], > 25 µM; in assay [9], > 25 µM; in [10], > 21 µM; in assay [11] it was > 25 µM. Besides, the TGI in assay [12] is > 25 µM; in assay [20], > 25 µM; in [13], > 25 µM; in [14], > 22 µM; in assay [15], > 25 µM; in assay [16] it was > 25 µM. In addition, the TGI in [17] is > 25 µM.
On to `CN(C)N1C(=O)CC2(CCN(CCCC(=O)c3ccc(F)cc3)CC2)C1=O`, for which the TGI in assay [1], in assay [2], in assay [3], in [4], in [5] and in assay [6] was > 100 µM each time. Moreover, the TGI in assay [7], in [8], in assay [9], in assay [10], in [11] and in assay [12] was > 100 µM in each case. Further, the TGI in assay [20], in assay [13], in assay [14], in [15], in assay [16] and in assay [17] was > 100 µM each time.
With `Cc1cc(-c2ccc(Cl)cc2)c(C#N)c(=S)n1C1OC(CO)C(O)C(O)C1O` (stereo not drawn), the TGI in assay [1], in assay [18], in [2], in assay [3], in assay [5] and in assay [6] was > 100 µM in each case. The TGI in assay [7], in [8], in assay [9], in assay [10], in [11] and in assay [12] was > 100 µM throughout. Moreover, the TGI in assay [20], in assay [13], in [14], in [15], in assay [16] and in assay [17] was > 100 µM throughout.
In the case of `COc1ccc(-n2nnnc2C2(Nc3ccccc3)CCN(Cc3ccccc3)CC2)cc1`, the TGI in assay [1] is > 100 µM; in assay [18], 14 µM; in assay [2], 28.8 µM; in assay [3] it was 21.3 µM; in assay [4] it was 15.4 µM; in [5] it was 23.3 µM. The TGI in assay [6] was found to be 32.3 µM; in assay [8] it was 48.8 µM; in [9], 54.6 µM; in assay [12], 28.9 µM; in [13], 26.6 µM; in [14], 24.6 µM. For the same compound, the TGI was 28 µM in assay [15], 45.2 µM in assay [16] and 28.9 µM in [17].
Consider `COC(=O)c1cc(/C=C2\Cc3cc4c(cc3C2=O)CCC4)cc2c1CCC2`, for which the TGI in assay [1], in assay [18], in [2], in assay [3], in assay [4] and in assay [5] was > 100 µM throughout. The TGI in [6], in [7], in assay [8], in assay [9], in [10] and in [11] was > 100 µM each time. The TGI in [12], in [20], in [13], in assay [15], in [16] and in assay [17] was > 100 µM in each case.

The values are drawn from PubChem BioAssay (NCI).
